Consider 17 compounds from publication PMC3089805 (Chemmedchem, 2010).

The subject of one assay is H. pylori strain 26695. The assay is described as follows: MIC determination, liquid microdilution, H. pylori. It is filed as cell-based. As to conditions: Helicobacter pylori, 26695, 27 h, read-out: MIC H. pylori.
Another assay has as its system C. jejuni strain H840. Description: MIC determination, liquid microdilution, C. jejuni. Conditions: Campylobacter jejuni, H840, 27 h, read-out: MIC C. jejuni. In kind it is cell-based.

Molecules are shown by their SMILES. ≈ marks a conversion by molar mass, not a printed value.

In the case of `O=C(Nc1ncc([N+](=O)[O-])s1)c1cc(Cl)sc1Cl` [Analogue 75, 2,5-Dichloro-N-(5-nitrothiazol-2-yl)thiophene-3-carboxamide], the MIC was determined as 1.5 µM (≈ 0.486 µg/mL) in the assay with H. pylori strain 26695 and 2.3 µM (≈ 0.746 µg/mL) in the assay with C. jejuni strain H840. Regarding `O=C(Nc1ncc([N+](=O)[O-])s1)c1cc(Br)c(Br)o1` [Analogue 63, 4,5-Dibromo-N-(5-nitrothiazol-2-yl)furan-2-carboxamide], the MIC in the assay on H. pylori strain 26695 turned out to be 2.8 µM (≈ 1.11 µg/mL); in the assay on C. jejuni strain H840, 20.2 µM (≈ 8.02 µg/mL). For the compound `O=C(Nc1ncc([N+](=O)[O-])s1)c1cc(F)c(F)c(F)c1F` [Analogue 15, 2,3,4,5-Tetrafluoro-N-(5-nitrothiazol-2-yl)benzamide], the MIC was determined as 1.2 µM (≈ 0.385 µg/mL) with H. pylori strain 26695 and 4.7 µM (≈ 1.51 µg/mL) with C. jejuni strain H840. Consider `O=C(C=Cc1ccccc1)Nc1ncc([N+](=O)[O-])s1` [Analogue 54, N-(5-Nitrothiazol-2-yl)cinnamamide], for which the MIC in the assay on H. pylori strain 26695 was 0.3 µM (≈ 0.0826 µg/mL); in the assay on C. jejuni strain H840 it was 2.7 µM (≈ 0.743 µg/mL). On to `CCCC(=O)Nc1ncc([N+](=O)[O-])s1` [Analogue 49, N-(5-Nitrothiazol-2-yl)butyramide], for which the MIC in the assay on H. pylori strain 26695 was determined as 3.5 µM (≈ 0.753 µg/mL); with C. jejuni strain H840, 13.9 µM (≈ 2.99 µg/mL). As to `COc1cc([N+](=O)[O-])ccc1C(=O)Nc1ncc([N+](=O)[O-])s1` [Analogue 33, 2-Methoxy-4-nitro-N-(5-nitrothiazol-2-yl)benzamide], the values for the MIC in the assay with H. pylori strain 26695 and with C. jejuni strain H840 were 0.6 µM (≈ 0.195 µg/mL) and 9.3 µM (≈ 3.02 µg/mL), respectively. In the case of `O=C(Nc1ncc([N+](=O)[O-])s1)c1ccc([N+](=O)[O-])cc1` [Analogue 27, 4-Nitro-N-(5-nitrothiazol-2-yl)benzamide], the MIC in the assay with H. pylori strain 26695 was found to be 1.3 µM (≈ 0.383 µg/mL); in the assay with C. jejuni strain H840 it was 13.6 µM (≈ 4 µg/mL).

For the compound `COc1ccccc1C(=O)Nc1ncc([N+](=O)[O-])s1` [Analogue 28, 2-Methoxy-N-(5-nitrothiazol-2-yl)benzamide], the results for the minimal inhibitory concentration (MIC) in the assay on H. pylori strain 26695 and in the assay on C. jejuni strain H840 were 1.8 µM (≈ 0.503 µg/mL) and 17.9 µM (≈ 5 µg/mL), respectively. For the compound `O=C(Nc1ncc([N+](=O)[O-])s1)c1sccc1Cl` [Analogue 78, 3-Chloro-N-(5-nitrothiazol-2-yl)thiophene-2-carboxamide], the MIC in the assay with H. pylori strain 26695 came to 5.2 µM (≈ 1.51 µg/mL); in the assay on C. jejuni strain H840 it was 20.7 µM (≈ 6 µg/mL). As to `N#Cc1ccc(C(=O)Nc2ncc([N+](=O)[O-])s2)cc1` [Analogue 21, 4-Cyano-N-(5-nitrothiazol-2-yl)benzamide], the results for the minimum inhibitory concentration (MIC) in the assay with H. pylori strain 26695 and in the assay on C. jejuni strain H840 were 9.1 µM (≈ 2.5 µg/mL) and 43.8 µM (≈ 12 µg/mL), respectively. For `O=C(Nc1ncc([N+](=O)[O-])s1)[C@@H]1C[C@H]1c1ccccc1` [Analogue 46, (1R,2R)-N-(5-Nitrothiazol-2-yl)-2-phenylcyclopropanecarboxamide], the MIC with H. pylori strain 26695 came to 13.8 µM (≈ 3.99 µg/mL); in the assay with C. jejuni strain H840, 2.6 µM (≈ 0.752 µg/mL). Turning to `O=C(Nc1ncc([N+](=O)[O-])s1)c1ccc(C(F)(F)F)cc1[N+](=O)[O-]` [Analogue 36, 2-Nitro-N-(5-nitrothiazol-2-yl)-4-(trifluoromethyl)benzamide], the minimal inhibitory concentration (MIC) in the assay on H. pylori strain 26695 turned out to be 8.3 µM (≈ 3.01 µg/mL); in the assay on C. jejuni strain H840, 88.3 µM (≈ 32 µg/mL). For `O=C(Nc1ncc([N+](=O)[O-])s1)c1ccc(F)cc1F` [Analogue 9, 2,4-Difluoro-N-(5-nitrothiazol-2-yl)benzamide], the MIC was 0.4 µM (≈ 0.114 µg/mL) in the assay with H. pylori strain 26695 and 7 µM (≈ 2 µg/mL) with C. jejuni strain H840. On to `O=C(Cc1ccccc1)Nc1ncc([N+](=O)[O-])s1` [Analogue 43, N-(5-Nitrothiazol-2-yl)-2-phenylacetamide], for which the minimum inhibitory concentration (MIC) in the assay with H. pylori strain 26695 was found to be 0.7 µM (≈ 0.184 µg/mL); with C. jejuni strain H840, 11.4 µM (≈ 3 µg/mL). Regarding `N#Cc1cccc(C(=O)Nc2ncc([N+](=O)[O-])s2)c1` [Analogue 20, 3-Cyano-N-(5-nitrothiazol-2-yl)benzamide], the MIC stood at 4.1 µM (≈ 1.12 µg/mL) with H. pylori strain 26695 and 36.5 µM (≈ 10 µg/mL) in the assay with C. jejuni strain H840. Take `O=C(Nc1ncc([N+](=O)[O-])s1)c1c(F)c(F)c(F)c(F)c1F` [Analogue 16, 2,3,4,5,6-Pentafluoro-N-(5-nitrothiazol-2-yl)benzamide]: the minimal inhibitory concentration (MIC) with H. pylori strain 26695 came out at 7.4 µM (≈ 2.51 µg/mL). For the compound `COc1cc(C(F)(F)F)ccc1C(=O)Nc1ncc([N+](=O)[O-])s1` [Analogue 32, 2-Methoxy-N-(5-nitrothiazol-2-yl)-4-(trifluoromethyl)benzamide], the MIC in the assay with H. pylori strain 26695 was found to be 0.9 µM (≈ 0.313 µg/mL).
